Tests used:
Assay in all cases: relative viability (nuclei count vs DMSO), 5 days (fraction); higher = more cells survive
IPA-3 + Phenformin = compound: C1=CC=C2C(=C1)C=CC(=C2SSC3=C(C=CC4=CC=CC=C43)O)O [IPA-3] + N=C(N)NC(=N)NCCc1ccccc1 [Phenformin] (partner 250 µM)
Summary of the method: (§1)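 A single step with final 0.05% Triton X-100, 1% formaldehyde and 1 ug/ml Hoechst fixed the cells and stained nuclei 5 days after treatment. Lung cancer cell lines in 1536-well plates had been treated by pin tool the day after seeding with one drug alone or a fixed anchor-drug dose plus five library-drug doses (not always all listed) in √10 steps, and nuclei were counted on 4× images. Relative viability is the ratio of nuclei in treated wells to nuclei in vehicle wells, taken as the median of duplicate plates.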

Doramapimod + Luminespib = compound: Cc1ccc(-n2nc(C(C)(C)C)cc2NC(=O)Nc2ccc(OCCN3CCOCC3)c3ccccc23)cc1 [Doramapimod] + CCNC(=O)c1noc(-c2cc(C(C)C)c(O)cc2O)c1-c1ccc(CN2CCOCC2)cc1 [Luminespib] (partner 0.01 µM)
Summary of the method: as §1

Doramapimod + Crizotinib = compound: Cc1ccc(-n2nc(C(C)(C)C)cc2NC(=O)Nc2ccc(OCCN3CCOCC3)c3ccccc23)cc1 [Doramapimod] + C[C@@H](Oc1cc(-c2cnn(C3CCNCC3)c2)cnc1N)c1c(Cl)ccc(F)c1Cl [Crizotinib] (partner 1 µM)
Summary of the method: as §1

RAF265 + Lapatinib = compound: Cn1c(Nc2ccc(C(F)(F)F)cc2)nc2cc(Oc3ccnc(-c4ncc(C(F)(F)F)[nH]4)c3)ccc21 [RAF265] + CS(=O)(=O)CCNCc1ccc(-c2ccc3ncnc(Nc4ccc(OCc5cccc(F)c5)c(Cl)c4)c3c2)o1 [Lapatinib] (partner 2 µM)
Summary of the method: as §1

Cell Line	relative viability (IPA-3 + Phenformin; first compound 0.2 µM)	relative viability (IPA-3 + Phenformin; first compound 0.6325 µM)	relative viability (IPA-3 + Phenformin; first compound 2 µM)	relative viability (IPA-3 + Phenformin; first compound 6.325 µM)	relative viability (IPA-3 + Phenformin; first compound 20 µM)	relative viability (Doramapimod + Luminespib; first compound 0.02 µM)	relative viability (Doramapimod + Luminespib; first compound 0.06325 µM)	relative viability (Doramapimod + Luminespib; first compound 0.2 µM)	relative viability (Doramapimod + Luminespib; first compound 0.6325 µM)	relative viability (Doramapimod + Luminespib; first compound 2 µM)	relative viability (Doramapimod + Crizotinib; first compound 0.02 µM)	relative viability (Doramapimod + Crizotinib; first compound 0.06325 µM)	relative viability (Doramapimod + Crizotinib; first compound 0.2 µM)	relative viability (Doramapimod + Crizotinib; first compound 0.6325 µM)	relative viability (Doramapimod + Crizotinib; first compound 2 µM)	relative viability (RAF265 + Lapatinib; first compound 0.01 µM)	relative viability (RAF265 + Lapatinib; first compound 0.03162 µM)	relative viability (RAF265 + Lapatinib; first compound 0.1 µM)	relative viability (RAF265 + Lapatinib; first compound 0.3162 µM)	relative viability (RAF265 + Lapatinib; first compound 1 µM)
LOU-NH91	0.793	0.666	0.721	0.677	0.954	0.408	0.324	0.28	0.315	0.282	0.729	0.724	0.749	0.796	0.61	0.763	0.719	0.664	0.808	0.572
LU99A	0.883	0.764	0.858	0.933	0.799	0.26	0.239	0.239	0.199	0.24	0.562	0.541	0.533	0.585	0.442	1.02	0.838	0.61	0.496	0.324
LXF-289	0.536	0.47	0.544	0.514	0.546	0.644	0.757	0.607	0.732	0.616	0.839	0.91	0.799	0.793	0.757	0.942	0.953	0.858	0.785	0.743
NCI-H441	1	0.715	0.838	0.742	0.513	0.317	0.243	0.399	–	0.298	0.96	0.512	0.67	0.741	0.549	–	–	–	–	–
NCI-H522	0.648	0.657	0.582	0.697	0.76	0.929	1.07	1	1.12	1.09	–	–	–	–	–	–	–	–	–	–
NCI-H1299	–	–	–	–	–	–	–	–	–	–	0.963	0.945	0.936	1	0.902	0.926	0.918	0.955	0.69	0.742
NCI-H1395	0.46	0.431	0.446	0.479	0.469	0.621	0.605	0.641	0.79	0.679	–	–	–	–	–	1.41	0.943	0.957	0.942	0.912
NCI-H1623	0.605	0.583	0.618	0.563	0.655	0.555	0.505	0.52	0.571	0.464	–	–	–	–	–	–	–	–	–	–
NCI-H1703	–	–	–	–	–	–	–	–	–	–	0.614	0.576	0.519	0.783	0.493	1.07	0.825	1.03	0.613	0.386
NCI-H1793	0.509	0.317	0.334	0.458	0.545	0.157	0.174	0.144	0.23	0.161	–	–	–	–	–	0.652	0.658	0.631	0.296	0.512
NCI-H2342	0.629	0.619	0.568	0.825	0.731	0.67	0.749	0.701	0.852	0.725	–	–	–	–	–	–	–	–	–	–
SW 900	0.783	0.575	0.556	0.784	0.677	0.169	0.185	0.162	0.155	0.165	–	–	–	–	–	–	–	–	–	–
